US9809584B1, “Sulfur-containing oxazine compound and synthesis method thereof” (National Tsing Hua University, priority 2016, dated 2017)

How the values were obtained:
[1] = test system: staphylococcus ATTC6341(Sa); experiment: Antibacterial activity, zone of inhibition, penicillin sensitive Sa strain; assay type: cell-based
Protocol: (§1) Next, the antibacterial activity of the prepared sulfur-containing BPA-FBz compounds is evaluated using two strains of staphylococcus ATTC6341(Sa) and ATTC11632(Sr), and the results are shown in Table 2. In particular, the Sa strain and the Sr strain have different sensitivities to antibiotics. The Sa strain is penicillin sensitive, and the Sr strain is penicillin resistant, and ampicillin is used as positive control. It can be known from Table 2 that, none of BPA-FBz and sulfur-containing BPA-FBz compounds having low sulfur content (i.e., compounds 1 and 2) has antibacterial activity.

[2] = test system: staphylococcus ATTC11632(Sr); experiment: Antibacterial activity, zone of inhibition, penicillin resistant Sr strain; assay type: cell-based
Protocol: as §1

[3] = dash = no antibacterial activity

Work on `CC1(C)S[C@@H]2[C@H](NC(=O)[C@H](N)c3ccccc3)C(=O)N2[C@H]1C(=O)O` [Ampicillin, ampicillin] yielded a Zone of inhibition [1, 3] of 34.0 mm and a Zone of inhibition [2, 3] of 9.0 mm.

For `CC(C)(c1ccc2c(c1)CN(Cc1ccco1)CO2)c1ccc2c(c1)CN(Cc1ccco1)CO2` [BPA-FBz, bis(3-furfuryl-3,4-dihydro-2H-1,3-benzoxazinyl)isopropane], the “antibacterial activity (in words)” value [1] was “none” and the “antibacterial activity (in words)” value [2] was “none”.
